Experimental data reported in patent US11912686B2 (Gilead Sciences, Inc., priority 2020, dated 2024).

Biological target: human LPAR1 (Homo sapiens (Human), UniProt Q92633)
Test: LPAR1 intracellular calcium mobilization assay (antagonist mode, FLIPR)
Assay type: cell-based
Conditions: CHO-K1 EDG2 cells expressing human LPAR1, LPA 18:2 at EC80 (100 nM), test compound 0.5 nM to 10 μM

human LPAR1, sequence (Q92633 whole entry): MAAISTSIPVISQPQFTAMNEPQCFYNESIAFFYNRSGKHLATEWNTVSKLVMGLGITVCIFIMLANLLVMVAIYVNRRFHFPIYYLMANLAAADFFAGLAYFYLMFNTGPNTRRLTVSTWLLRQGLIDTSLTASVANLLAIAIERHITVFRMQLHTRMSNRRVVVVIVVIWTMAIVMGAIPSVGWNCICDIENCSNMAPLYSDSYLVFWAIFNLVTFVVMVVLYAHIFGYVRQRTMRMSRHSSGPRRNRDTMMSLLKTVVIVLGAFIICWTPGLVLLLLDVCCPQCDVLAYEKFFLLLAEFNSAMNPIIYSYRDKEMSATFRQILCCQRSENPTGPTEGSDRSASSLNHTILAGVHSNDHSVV

Row | SMILES | EC50
1 | C[C@@H](OC(=O)Nc1c(-c2ccc(NC(=O)CC(C)(C)O)cn2)nnn1C)c1cccnc1Cl [Compound 118, (R)-1-(2-chloropyridin-3-yl)ethyl (4-(5-(3-hydroxy-3-methylbutanamido)pyridin-2-yl)-1-methyl-1H-1,2,3-triazol-5-yl)carbamate] | 1340 nM
2 | C[C@@H](OC(=O)Nc1c(-c2ccc(NC(=O)C3(CO)CC(F)(F)C3)cn2)nnn1C)c1cccnc1Cl [Compound 200, (R)-1-(2-chloropyridin-3-yl)ethyl (4-(5-(3,3-difluoro-1-(hydroxymethyl)cyclobutane-1-carboxamido)pyridin-2-yl)-1-methyl-1H-1,2,3-triazol-5-yl)carbamate] | 94 nM
3 | C[C@@H](OC(=O)Nc1c(-c2ccc(NC(=O)C(F)(F)F)cc2)nnn1C)c1cccc(F)c1 [Compound 1, (R)-1-(3-fluorophenyl)ethyl (1-methyl-4-(4-(2,2,2-trifluoroacetamido)phenyl)-1H-1,2,3-triazol-5-yl)carbamate] | 6520 nM
4 | C[C@@H](OC(=O)Nc1c(-c2ccc(NC(=O)[C@H]3CCC3(F)F)cn2)nnn1C)c1cccnc1Cl [Compound 91, (R)-1-(2-chloropyridin-3-yl)ethyl (4-(5-((R)-2,2-difluorocyclobutane-1-carboxamido)pyridin-2-yl)-1-methyl-1H-1,2,3-triazol-5-yl)carbamate] | 187 nM
5 | C[C@@H](OC(=O)Nc1c(-c2ccc(NC(=O)[C@H]3CNC(=O)C3)cn2)nnn1C)c1cccnc1Cl [Compound 195, (R)-1-(2-chloropyridin-3-yl)ethyl (1-methyl-4-(5-((R)-5-oxopyrrolidine-3-carboxamido)pyridin-2-yl)-1H-1,2,3-triazol-5-yl)carbamate] | 1540 nM
6 | C[C@@H](OC(=O)Nc1c(-c2ccc(NC(=O)C3CC3C#N)cn2)nnn1C)c1cccnc1Cl (stereo partly drawn) [Compound 130, (R)-1-(2-chloropyridin-3-yl)ethyl (4-(5-(2-cyanocyclopropane-1-carboxamido)pyridin-2-yl)-1-methyl-1H-1,2,3-triazol-5-yl)carbamate] | 271 nM
7 | Cc1nonc1C(=O)Nc1ccc(-c2nnn(C)c2NC(=O)O[C@H](C)c2cc(F)cnc2F)nc1 [Compound 239, (R)-1-(2,5-difluoropyridin-3-yl)ethyl (1-methyl-4-(5-(4-methyl-1,2,5-oxadiazole-3-carboxamido)pyridin-2-yl)-1H-1,2,3-triazol-5-yl)carbamate] | 62.3 nM
8 | CNC(=O)Nc1ccc(-c2nnn(C)c2NC(=O)O[C@H](C)c2ccccc2Cl)cn1 [Compound 3] | 10000 nM
9 | C[C@@H](OC(=O)Nc1c(-c2ccc(NC(=O)C3(C(F)F)CC3)cn2)nnn1C)c1cc(F)cnc1Cl [Compound 166, (R)-1-(2-chloro-5-fluoropyridin-3-yl)ethyl (4-(5-(1-(difluoromethyl)cyclopropane-1-carboxamido)pyridin-2-yl)-1-methyl-1H-1,2,3-triazol-5-yl)carbamate] | 238 nM
10 | C[C@@H](OC(=O)Nc1c(-c2ccc(NC(=O)C3(C)CC3)cn2)nnn1C)c1cccnc1Cl [Compound 32, (R)-1-(2-chloropyridin-3-yl)ethyl (1-methyl-4-(5-(1-methylcyclopropane-1-carboxamido)pyridin-2-yl)-1H-1,2,3-triazol-5-yl)carbamate] | 799 nM
11 | C[C@@H](OC(=O)Nc1c(-c2ccc(NC(=O)[C@H]3[C@H](C4CC4)C3(F)F)cn2)nnn1C)c1cc(F)cnc1F (mixture of isomers) [Compound 248, (R)-1-(2,5-difluoropyridin-3-yl)ethyl (4-(5-((1RS,2SR)-3,3-difluoro-[1,1′-bi(cyclopropane)]-2-carboxamido)pyridin-2-yl)-1-methyl-1H-1,2,3-triazol-5-yl)carbamate] | 29.8 nM
12 | C[C@@H](OC(=O)Nc1c(-c2ccc(NC(=O)[C@@H]3C[C@H]3Cl)cn2)nnn1C)c1cc(F)cnc1F [Compound 218, (R)-1-(2,5-difluoropyridin-3-yl)ethyl (4 (5-((1S,2R)-2-chlorocyclopropane-1-carboxamido)pyridin-2-yl)-1-methyl-1H-1,2,3-triazol-5-yl)carbamate] | 24 nM
13 | Cc1nc2cc(C(=O)Nc3ccc(-c4nnn(C)c4NC(=O)O[C@H](C)c4cc(F)cnc4F)nc3)cnc2[nH]1 [Compound 277, (R)-1-(2,5-difluoropyridin-3-yl)ethyl (1-methyl-4-(5-(2-methyl-3H-imidazo[4,5-b]pyridine-6-carboxamido)pyridin-2-yl)-1H-1,2,3-triazol-5-yl)carbamate] | 955 nM
14 | C[C@@H](OC(=O)Nc1c(-c2ccc(NC(=O)c3ccnc(F)c3)cn2)nnn1C)c1cc(F)cnc1F [Compound 213, (R)-1-(2,5-difluoropyridin-3-yl)ethyl (4-(5-(2-fluoroisonicotinamido)pyridin-2-yl)-1-methyl-1H-1,2,3-triazol-5-yl)carbamate] | 175 nM
15 | C[C@@H](OC(=O)Nc1c(-c2ccc(NC(=O)c3ccc(C(C)(F)F)nc3)cn2)nnn1C)c1cc(F)cnc1F [Compound 272, (R)-1-(2,5-difluoropyridin-3-yl)ethyl (4-(5-(6-(1,1-difluoroethyl)nicotinamido)pyridin-2-yl)-1-methyl-1H-1,2,3-triazol-5-yl)carbamate] | 162 nM
16 | C[C@@H](OC(=O)Nc1c(-c2ccc(NC(=O)c3ccc(C4(C#N)CC4)nc3)cn2)nnn1C)c1cc(F)cnc1F [Compound 271, (R)-1-(2,5-difluoropyridin-3-yl)ethyl (4-(5-(6-(1-cyanocyclopropyl)nicotinamido)pyridin-2-yl)-1-methyl-1H-1,2,3-triazol-5-yl)carbamate] | 229 nM
17 | C[C@@H](OC(=O)Nc1c(-c2cc(F)c(NC(=O)C34CC(C#N)(C3)C4)cn2)nnn1C)c1cccnc1Cl [Compound 184, (R)-1-(2-chloropyridin-3-yl)ethyl (4-(5-(3-cyanobicyclo[1.1.1]pentane-1-carboxamido)-4-fluoropyridin-2-yl)-1-methyl-1H-1,2,3-triazol-5-yl)carbamate] | 81.8 nM
18 | C[C@@H](OC(=O)Nc1c(-c2ccc(NC(=O)c3cnnc(C(F)(F)F)c3)cn2)nnn1C)c1cc(F)cnc1F [Compound 259, (R)-1-(2,5-difluoropyridin-3-yl)ethyl (1-methyl-4-(5-(6-(trifluoromethyl)pyridazine-4-carboxamido)pyridin-2-yl)-1H-1,2,3-triazol-5-yl)carbamate] | 101 nM
19 | C[C@@H](OC(=O)Nc1c(-c2ccc(NC(=O)C3COC3)cn2)nnn1C)c1cccnc1Cl [Compound 57, (R)-1-(2-chloropyridin-3-yl)ethyl (1-methyl-4-(5-(oxetane-3-carboxamido)pyridin-2-yl)-1H-1,2,3-triazol-5-yl)carbamate] | 339 nM
20 | COC12CC(C(=O)Nc3ccc(-c4nnn(C)c4NC(=O)O[C@H](C)c4cccnc4Cl)nc3)(C1)C2 [Compound 46, (R)-1-(2-chloropyridin-3-yl)ethyl (4-(5-(3-methoxybicyclo[1.1.1]pentane-1-carboxamido)pyridin-2-yl)-1-methyl-1H-1,2,3-triazol-5-yl)carbamate] | 29.7 nM
21 | C[C@@H](OC(=O)Nc1c(-c2cnc(NC(=O)c3ccnc(F)c3F)cn2)nnn1C)c1cc(F)cnc1F [Compound 323, (R)-1-(2,5-difluoropyridin-3-yl)ethyl (4-(5-(2,3-difluoroisonicotinamido)pyrazin-2-yl)-1-methyl-1H-1,2,3-triazol-5-yl)carbamate] | 178 nM
22 | C[C@@H](OC(=O)Nc1c(-c2ccc(NC(=O)[C@H]3C[C@H](C#N)C3)cn2)nnn1C)c1cccnc1Cl [Compound 127, (R)-1-(2-chloropyridin-3-yl)ethyl (4-(5-((1r,3R)-3-cyanocyclobutane-1-carboxamido)pyridin-2-yl)-1-methyl-1H-1,2,3-triazol-5-yl)carbamate] | 416 nM
23 | C[C@@H](OC(=O)Nc1c(-c2ccc(NC(=O)[C@]3(C)C[C@H](C#N)C3)cn2)nnn1C)c1cccnc1Cl [Compound 121, (R)-1-(2-chloropyridin-3-yl)ethyl (4-(5-((1s,3S)-3-cyano-1-methylcyclobutane-1-carboxamido)pyridin-2-yl)-1-methyl-1H-1,2,3-triazol-5-yl)carbamate] | 264 nM
24 | C[C@@H]1CCCN1C(=O)Nc1ccc(-c2nnn(C)c2NC(=O)O[C@H](C)c2cccnc2Cl)nc1 [Compound 192, (R)-1-(2-chloropyridin-3-yl)ethyl (1-methyl-4-(5-((R)-2-methylpyrrolidine-1-carboxamido)pyridin-2-yl)-1H-1,2,3-triazol-5-yl)carbamate] | 10000 nM
25 | CC(=O)Nc1cnc(-c2nnn(C)c2NC(=O)O[C@H](C)c2cccnc2Cl)c(F)c1 [Compound 9, (R)-1-(2-chloropyridin-3-yl)ethyl (4-(5-acetamido-3-fluoropyridin-2-yl)-1-methyl-1H-1,2,3-triazol-5-yl)carbamate] | 2700 nM
26 | C[C@@H](OC(=O)Nc1c(-c2ccc(NC(=O)[C@H]3C[C@@H]3C#N)cn2)nnn1C)c1cccnc1Cl [Compound 50, (R)-1-(2-chloropyridin-3-yl)ethyl (4-(5-((1S,2S)-2-cyanocyclopropane-1-carboxamido)pyridin-2-yl)-1-methyl-1H-1,2,3-triazol-5-yl)carbamate] | 1760 nM
27 | C[C@@H](OC(=O)Nc1c(-c2cnc(NC(=O)c3ccc(C(F)F)nc3)cn2)nnn1C)c1cc(F)cnc1F [Compound 321, (R)-1-(2,5-difluoropyridin-3-yl)ethyl (4-(5-(6-(difluoromethyl)nicotinamido)pyrazin-2-yl)-1-methyl-1H-1,2,3-triazol-5-yl)carbamate] | 309 nM
28 | C[C@@H](OC(=O)Nc1c(-c2ccc(NC(=O)C3CCO3)cn2)nnn1C)c1cccnc1Cl (stereo partly drawn) [Compound 54, (R)-1-(2-chloropyridin-3-yl)ethyl (1-methyl-4-(5-(oxetane-2-carboxamido)pyridin-2-yl)-1H-1,2,3-triazol-5-yl)carbamate] | 7860 nM
29 | C[C@@H](OC(=O)Nc1c(-c2ccc(NC(=O)c3cc(F)nc(F)c3)cn2)nnn1C)c1cc(F)cnc1F [Compound 244, (R)-1-(2,5-difluoropyridin-3-yl)ethyl (4-(5-(2,6-difluoroisonicotinamido)pyridin-2-yl)-1-methyl-1H-1,2,3-triazol-5-yl)carbamate] | 131 nM
